Patent publication US20200376011A1, “COMPOSITION FOR TREATING CANCER INCLUDING ALGINATE OLIGOSACCHARIDE AS AN ACTIVE INGREDIENT” (BIO3S, INC, priority 2019, published 2020)

System: infiltration of NK cells into ECM (collagen) toward cancer cells (A549)
Test: NK cell infiltration in tumor microenvironment (TME) simulating organ-on-a-chip model
Type: cell-based
Details: co-treatment with NK cells and M5 versus NK cells alone; 48 hours; high-concentration collagen cell barrier model
From the text: The efficacy as a cancer adjuvant was examined by administering tumor microenvironment (TME) simulating models (organ-on-a-chips) with NK cells and the indicator component M5 for the active ingredient of the present disclosure.
NK cells, known to have anti-cancer efficacy as immune cells, were examined for a change in infiltration ability into tumor tissues according to whether or not NK cells were co-administered with M5. The qualification criterion was the infiltration ability of immune cells into ECM, which was determined by the infiltration distance of NK cells and whether or not the number of infiltrating cells was increased. Collagen was selected as a representative type of ECM. The cells were seeded into the chips under a […] collagen condition, and after 6 hours and 48 hours, the infiltration of NK cells toward the medium and cancer cell (A549) channels was observed.
A comparison was made for the infiltration ability of NK cells between the treatment with NK cells alone and the co-treatment with NK cells and M5, for 48 hours in high-concentration collagen cell barrier models.

For penta-mannuronic acid sodium salt [M5], the “infiltration ability of NK cells into cancer cells” value was “enhanced”.
